Measured values taken from patent US10710951B2, “Pharmaceutical composition containing verbenone derivative for treating or preventing neurodegenerative disease” (KOREA UNIVERSITY RESEARCH AND BUSINESS FOUNDATION, priority 2012, dated 2020).

Key:
[1] = Oxygen radical absorbance capacity (ORAC) assay; set-up: ORAC assay TE25 (trolox equivalents): dose or concentration left out as unconfirmed; settings: for ORAC assay TE25 (trolox equivalents): net AUC sample / net AUC trolox
Protocol: An ORAC assay was performed as disclosed in the literature (Huang, D. et al., J. Agric. Food Chem., 53, 1841-56, 2005).
AAPH (60 mM) and fluorescein (50 nM) were prepared in buffer (75 mM phosphate buffer, pH7.4) without a sample or a sample or a standard (Trolox). Each of the samples and the standard was suspended in a solution of 7% RMCD (randomly methylated beta-cyclodextrin) in 50% acetone. RMCD was used to increase the solubility of oil-soluble samples. Each sample was sufficiently mixed with fluorescein solution (66 nM, 190 μl) by shaking for 5 seconds. After incubation at 37° C. for 10 minutes, AAPH (500 mM, 30 μl) was quickly added to each sample, and a decrease in the fluorescence was measured using a fluorescence microplate reader (Ex=485 nm, Em=530 nm; SpectraMax GeminiEM, Molecular Devices, Sunnyvale, Calif.) at 37° C. at 5-min intervals for 9 hours. To quantify the activity of scavenging peroxyl radicals, AUC (area-under-the-curve) was calculated according to the following equation 2, and net AUC was calculated according to the following equation 3, and the TE (trolox equivalents) of each sample was calculated according to the following equation 4 based on a standard curve of net AUC plotted according to an increase in trolox concentration. AUC=(0.5+f1/f0+f2/f0+f3/f0+ . . . +fn−2/f0+fn−1/f0+fn/f0)×5, Equation 2
wherein f0 is the first fluorescence at 0 min and time I. Net AUC=AUCsample−AUCblank. Equation 3 TE(trolox equivalents) of each sample=[netAUCsample […]]/[net AUCtrolox […]]. Equation 4
(§1) The antioxidant activities of the verbenone derivatives of the present invention were measured by the following two different chemical reactions: (1) a single electron transfer-based assay that is a […] [DPPH] assay that measures a decrease in DPPH acting as a free radical generator and a termination probe; and (2) a hydrogen atom transfer assay that is an oxygen radical absorbance capacity [[…]] assay that measures the competitive reaction kinetics of a peroxyl radical generator (AAPH; 2,2′-azobis-(2-methylpropionamide)-dihydrochloride) and each sample acting as an antioxidant for oxidizable fluorescent probe (fluorescein).

cortical neurons [2] = test: NMDA-induced excitotoxicity, LDH release; assay type: cell-based, SD rats; set-up: dose or concentration left out as unconfirmed; settings: cultured cortical neuronal cells; sample 30 min before NMDA; lower than MK-801; FIG. 2
Protocol: (§2) Cortical neurons (5×10^5 cells/ml) were isolated from fetal SD rats (16-17 days). Specifically, brain cortex was cut, and cells were isolated from the tissue by repeated trituration using a Pasteur pipette in buffer (Hanks' Balanced Salt Solution, HBSS). The cell suspension (1.8×10^3 cells/mm^2) was dispensed on a plate pretreated with poly-D-lysine ([…])/laminin ([…]). The cells were placed in 10% FBS-containing NBM medium, and incubated in a […]/5% CO2 atmosphere at 37° C. After 15-16 days of the incubation, the experiment was performed.
After incubation on the plate for 15-18 days, the cortical neurons were exposed to NMDA ([…]) in a solution (Mg^2+-free Earle's balanced salt solution (EBSS); containing 1.8 mM CaCl2 and 10 mM glycine) for 10 minutes. After exposure, the cells were washed with MgSO4-containing EBSS solution, and incubated in 25 mmol/L glucose-containing DMEM medium in a 5% CO2 incubator at 37° C. 30 Minutes before treatment with NMDA, the cells were treated with each sample […].
(§3) In order to measure cell injury or cell death, the amount of LDH released into the medium was measured using a cell viability measurement kit (Sigma-Aldrich, St. Louis, Mo.). Cell viability was expressed as the percentage of LDH relative to the total cellular LDH level measured in sister cultures lysed by freezing-thawing after the experiment.

[3] = DPPH assay (ability to scavenge nitrogen radicals); set-up: DPPH assay % inhibition: concentration or dose not given beside the values; settings: relative to vitamin C (Equation 1)
Protocol: The samples were mixed with DPPH (23.6 μg/ml, in ethanol), and incubated in dark at 37° C. for 30 minutes. The DPPH absorbance reduced by each sample was measured at 517 nm. Vitamin C (Sigma-Aldrich, St. Louis, Mo.) was used as a control, and the DPPH inhibition value (%) was calculated using the following equation: Scavenging activity (%)=[Absmax(Vit.C)−Abssample]/[Absmax(Vit.C)−Absmin(Vit.C)]×100. Equation 1
as §1

cortical neurons [4] = test: Oxygen-glucose deprivation (OGD)/reoxygenation neuronal injury, LDH release; assay type: cell-based; settings: rat cortical neurons, FIG. 1
Protocol: as §2
In order to induce hypoxic-ischemic symptoms in vitro, the incubated cells were placed in an anoxic chamber (partial oxygen pressure <2 mmHg). The cells were incubated glucose-free DMEM while being bubbled with an anaerobic gas mixture (95% N2 and 5% CO2) for 30 minutes to remove residual oxygen, and were incubated at 37° C. for 90 minutes for oxygen deprivation. After 90 minutes, the exposed solution was replaced with 25 mmol/L glucose-containing DMEM medium to stop the OGD reaction, and the cells were restored to normal oxygen conditions. Control cells not exposed to OGD were incubated in glucose (25 mmol/L)-containing DMEM medium provided with an aerobic gas mixture (95% air and 5% CO2). The cells were treated with each sample 30 minutes before, and during the entire period of OGD/re-oxygenation.
as §3

Row | Compound | ORAC assay Net AUC [1] | ORAC assay TE25 (trolox equivalents) [1] | NMDA-induced neuronal injury (cortical neurons [2]) | DPPH assay % inhibition [3] [%] | neuronal injury induced by OGD (LDH release) (cortical neurons [4]; OGD/reoxygenation, comparable to MK801) | cytotoxicity (cortical neurons [4])
1 | CC1(C)[C@@H]2C[C@H]1C(C=Cc1ccc(F)cc1)=CC2=O [Compound 4b, (1S,5R)-4-(4-fluorostyryl)-6,6-dimethylbicyclo[3.1.1]hept-3-en-2-one] | 26.15 ± 1.26 | 0.62 ± 0.02 |  |  |  | 
2 | COc1ccc(OC)c(C=CC2=CC(=O)[C@H]3C[C@@H]2C3(C)C)c1 [Compound 4h, (1S,5R)-4-(2,5-dimethoxystyryl)-6,6-dimethylbicyclo[3.1.1]hept-3-en-2-one] | 32.44 ± 1.54 | 0.72 ± 0.03 |  |  |  | 
3 | CC1(C)[C@@H]2C[C@H]1C(C=Cc1ccc(O)cc1)=CC2=O [Compound 3a, (1S,5R)-4-(4-hydroxystyryl)-6,6-dimethylbicyclo[3.1.1]hept-3-en-2-one] | 153.98 ± 1.68 | 3.43 ± 0.04 | significantly reduced NMDA-induced neuronal injury | 19.11 ± 0.67 | significantly reduced neuronal injury | showed no cytotoxicity
4 | CC1(C)[C@@H]2C[C@H]1C(/C=C/c1ccncc1)=CC2=O [Compound 5c] | 22.51 ± 0.34 | 0.50 ± 0.01 |  |  |  | 
5 | COc1cc(C=CC2=CC(=O)[C@H]3C[C@@H]2C3(C)C)cc(OC)c1 [Compound 4g, (1S,5R)-4-(3,5-dimethoxystyryl)-6,6-dimethylbicyclo[3.1.1]hept-3-en-2-one] | 45.28 ± 0.62 | 1.01 ± 0.01 |  |  |  | 
6 | CC1(C)[C@@H]2C[C@H]1C(C=Cc1ccccc1O)=CC2=O [Compound 3h, (1S,5R)-4-(2-hydroxystyryl)-6,6-dimethylbicyclo[3.1.1]hept-3-en-2-one] | 98.77 ± 2.53 | 2.20 ± 0.06 |  | 4.64 ± 0.60 |  | 
7 | COc1ccc(C=CC2=CC(=O)[C@H]3C[C@@H]2C3(C)C)c(O)c1 [Compound 3i, (1S,5R)-4-(2-hydroxy-4-methoxystyryl)-6,6-dimethylbicyclo[3.1.1]hept-3-en-2-one] | 136.87 ± 3.24 | 3.05 ± 0.07 | significantly reduced NMDA-induced neuronal injury | 51.21 ± 3.83 |  | 
8 | CC1(C)[C@@H]2C[C@H]1C(C=Cc1ccc(O)c(Br)c1)=CC2=O [Compound 3d, (1S,5R)-4-(3-bromo-4-hydroxystyryl)-6,6-dimethylbicyclo[3.1.1]hept-3-en-2-one] | 168.12 ± 5.24 | 3.74 ± 0.12 |  | 29.45 ± 2.41 |  | 
9 | COc1ccc(C=CC2=CC(=O)[C@H]3C[C@@H]2C3(C)C)cc1 [Compound 4c, (1S,5R)-4-(4-methoxystyryl)-6,6-dimethylbicyclo[3.1.1]hept-3-en-2-one] | 38.06 ± 2.00 | 0.79 ± 0.01 |  |  |  | 
10 | COc1ccc(Br)cc1C=CC1=CC(=O)[C@H]2C[C@@H]1C2(C)C [Compound 4i, (1S,5R)-4-(5-bromo-2-methoxystyryl)-6,6-dimethylbicyclo[3.1.1]hept-3-en-2-one] | 32.96 ± 1.03 | 0.73 ± 0.02 |  |  |  | 
11 | CC1(C)[C@@H]2C[C@H]1C(/C=C/c1ccccn1)=CC2=O [Compound 5a, (1S,5R)-6,6-dimethyl-4-((E)-2-(pyridin-2-yl)vinyl)bicyclo[3.1.1]hept-3-en-2-one] | 23.51 ± 0.79 | 0.52 ± 0.02 | significantly reduced NMDA-induced neuronal injury |  |  | 
12 | CC1(C)[C@@H]2C[C@H]1C(/C=C/c1cccnc1)=CC2=O [Compound 5b, (1S,5R)-6,6-dimethyl-4-((E)-2-(pyridin-3-yl)vinyl)bicyclo[3.1.1]hept-3-en-2-one] | 22.93 ± 0.61 | 0.51 ± 0.01 |  |  |  | 
13 | COc1cc(O)cc(OC)c1C=CC1=CC(=O)[C@H]2C[C@@H]1C2(C)C [Compound 3e, (1S,5R)-4-(4-hydroxy-2,6-dimethoxystyryl)-6,6-dimethylbicyclo[3.1.1]hept-3-en-2-one] | 166.26 ± 6.05 | 3.70 ± 0.13 |  | 55.80 ± 7.52 |  | 
14 | COc1ccc(C=CC2=CC(=O)[C@H]3C[C@@H]2C3(C)C)cc1OC [Compound 4f, (1S,5R)-4-(3,4-dimethoxystyryl)-6,6-dimethylbicyclo[3.1.1]hept-3-en-2-one] | 39.35 ± 1.67 | 0.88 ± 0.04 |  |  |  | 
15 | COc1cc(O)ccc1C=CC1=CC(=O)[C@H]2C[C@@H]1C2(C)C [Compound 3b, (1S,5R)-4-(4-hydroxy-2-methoxystyryl)-6,6-dimethylbicyclo[3.1.1]hept-3-en-2-one] | 106.48 ± 1.89 | 2.37 ± 0.04 |  | 38.13 ± 5.62 |  | 
16 | CC1(C)[C@@H]2C[C@H]1C(C=Cc1cccc(O)c1)=CC2=O [Compound 3g, (1S,5R)-4-(3-hydroxystyryl)-6,6-dimethylbicyclo[3.1.1]hept-3-en-2-one] | 73.74 ± 3.86 | 1.64 ± 0.09 |  |  |  | 
17 | CC1(C)[C@@H]2C[C@H]1C(C=Cc1ccccc1)=CC2=O [Compound 4a, (1S,5R)-6,6-dimethyl-4-styrylbicyclo[3.1.1]hept-3-en-2-one] | 27.73 ± 0.74 | 0.61 ± 0.01 |  |  |  | 
18 | CC1(C)[C@@H]2C[C@H]1C(C=Cc1ccc(-c3ccccc3)cc1)=CC2=O [Compound 4d, (1S,5R)-4-(2-(biphenyl-4-yl)vinyl)-6,6-dimethylbicyclo[3.1.1]hept-3-en-2-one] | 26.75 ± 1.27 | 0.56 ± 0.01 |  |  |  | 
